Source: PMC11094307, “Marine-derived EGFR inhibitors: novel compounds targeting breast cancer growth and drug resistance” (Frontiers in Pharmacology, 2024)
Where “and” joins values, the source holds several entries; their conditions need not be identical. Equal entries are not always repeated.

Columns and labels:
MCF-7 cells = assay: MTT assay, MCF-7 growth inhibition; format: cell-based, human
Procedure: Both mediums were enriched with 10% fetal bovine serum and 1% penicillin/streptomycin.
Cells in the exponential growth phase were seeded into 96-well plates and allowed to adhere overnight. […] After 24 h, 20 µL of Methyl-thiazolyldiphenyl-tetrazolium bromide (MTT, 5 mg/mL, Thermo Fisher Scientific) was added to each well and incubated for a minimum of 4 h. Following the incubation, the medium containing the compounds and MTT was removed from each well, and 200 µL of dimethyl sulfoxide (DMSO) was added.
(§1) All experiments were repeated at least three times, and the data are presented as mean ± standard deviation (SD). The statistical analyses were performed using Origin. EC50 or IC50 values were obtained by fitting the data to a four-parameter Hill model of the graph of log dose against percentage cell viability or inhibition from at least three sets of experiments. Difference between two groups were analyzed by Student’s t test (two-sided) and significance was set at p < 0.05. The specific details about statistical methods are introduced in respective figure legends.

BAX = assay: Western blotting of MCF-7 lysates, BAX; format: cell-based, human; conditions: for BAX WB Normalized: control 0 µM 0.795076455
Procedure: MCF-7 cell lysates were prepared by rinsing the cells twice with PBS and then solubilizing them in lysis buffer (NP40 supplemented with protease and phosphatase inhibitor cocktails) on ice. The solubilization process involved rotating the lysis buffer/cell mixture end over end for 10 min at 4°C. After centrifugation for 10 min at 4°C to remove insoluble material, the protein concentration of the solubilized protein was determined using a BCA assay. Subsequently, samples were diluted in SDS sample buffer. Equivalent amounts of protein were separated by SDS-PAGE, transferred to PVDF membranes, and probed with the indicated antibody. Prior to incubation with primary antibodies overnight at 4°C, the membranes were blocked with 5% skim milk-TBST. The antibodies and their sources were as follows: PARP1 (1:500, Santa Cruz Biotechnology), Cleaved Caspase-3 (1:1000, Cell Signaling Technology), BAX (1:500, Santa Cruz Biotechnology), BCL-2 (1:500, Santa Cruz Biotechnology), and GAPDH (1:500, Santa Cruz Biotechnology). Following incubation with horseradish peroxidase-conjugated goat anti-mouse or goat anti-rabbit secondary antibody (Santa Cruz Biotechnology), the detected proteins were visualized using the Pierce Enhanced Chemiluminescence (ECL) reagent and a UV Products imaging system. Band intensities were quantified using the National Institutes of Health ImageJ software.

EGFR L858R/T790M = target: T1, EGFR L858R/T790M (Homo sapiens, UniProt P00533, L858R/T790M); assay: Kinase inhibition assay (ADP-Glo, Promega); format: biochemical; conditions: in vitro kinase assay; read-out: IC50 against EGFR L858R/T790M
T1 construct: purchased Promega Corporation, USA
Procedure: (§2) The extracellular ligand-binding domain of EGFR, tagged with His, and the intracellular tyrosine kinase (TK) domain of EGFR, tagged with GST, were acquired from Sinobiological, China. […] Cell lines including MCF-7, A549, A431, H1299, HL-60, and MCF-10A were obtained from the China Infrastructure Cell Line Resources.
(§3) The experiments were conducted in accordance with the manufacturer’s guidelines (Promega). The procedure began with a kinase reaction, where 5 μL of 1× kinase buffer was utilized, and the mixture was incubated at room temperature for 60 min. This step was followed by the addition of 5 μL of ADP-Glo™ reagent to terminate the kinase reaction and to deplete any remaining ATP, with a subsequent incubation period of 40 min at room temperature. Next, 10 μL of kinase detection reagent was added to convert ADP back into ATP, and luciferase along with luciferin was introduced to facilitate ATP detection. This mixture was then incubated at room temperature for an additional 30 min. Detection was carried out using a BioTek Synergy4 instrument, and data analysis, including curve fitting and presentation, was performed using GraphPad Prism version 5.0.
as §1

EGFR T790M = target: T2, EGFR T790M (Homo sapiens, UniProt P00533, T790M); assay: Kinase inhibition assay (ADP-Glo, Promega); format: biochemical; conditions: in vitro kinase assay; read-out: IC50 against EGFR T790M
T2 construct: purchased Promega Corporation, USA
Procedure: as §2, §3, §1

WT EGFR = target: T3, WT EGFR (Homo sapiens, UniProt P00533); assay: Kinase inhibition assay (ADP-Glo, Promega); format: biochemical; conditions: in vitro kinase assay; read-out: IC50 against WT EGFR
T3 construct: purchased Promega Corporation, USA
Procedure: as §2, §3, §1

FGFR2 = FGFR2 (Homo sapiens, UniProt P21802); assay: Kinase profiling; format: biochemical; conditions: one of the other seven tyrosine kinases
Procedure: as §3, with “5.0. […]; [Song et al., 2017]; [Abou-Zied et al., 2019]).” for “5.0.”

HER4 = HER4 (Homo sapiens, UniProt Q15303); assay: Kinase profiling; format: biochemical
Procedure: as §3, with “5.0. […]; [Song et al., 2017]; [Abou-Zied et al., 2019]).” for “5.0.”

EGFR = target: T4, EGFR (Homo sapiens, UniProt P00533); assay: CETSA in MCF-7 cells; format: cell-based; conditions: for CETSA WB Normalized (Figure 3F): control 0 µM 0.614197892
T4 construct: endogenous in cells; host or cells: MCF-7
Procedure: In the CETSA, MCF-7 cells were treated with varying concentrations of Tandyukisin (5, 10, 20 µM) or a control solution of 0.2% DMSO for 24 h. Following treatment, cells were harvested and washed with PBS to eliminate any residual drug, then an equal number of cells were allocated into 0.2 mL PCR tubes. These cells were resuspended in 100 µL PBS supplemented with a complete protease inhibitor cocktail and subjected to a heating step at […] for 3 min. Post-heating, the cells underwent lysis through three cycles of freeze-thaw using liquid nitrogen, followed by centrifugation at 12,000g for 20 min at 4°C to separate the lysate. The clarified supernatant from each tube was then carefully transferred to fresh tubes for Western blotting.
To confirm Tandyukisin directly bound EGFR in cells, CETSA was conducted. Currently, CETSA is widely used in drug target discovery assay and is based on the thermal stability changes after drugs bind to their targets ([Martinez Molina et al., 2013]; [Jafari et al., 2014]). After treatment with Tandyukisin at 5, 10, 20 μM for 24 h, the multiple aliquots of the cell suspension were heated at 55°C. The heated cells were subsequently lysed and centrifuged to separate soluble fractions from precipitated denatured EGFR. After thermal denaturation, EGFR in the soluble fraction was examined by Western blotting.

T4 sequence (P00533 25-1210): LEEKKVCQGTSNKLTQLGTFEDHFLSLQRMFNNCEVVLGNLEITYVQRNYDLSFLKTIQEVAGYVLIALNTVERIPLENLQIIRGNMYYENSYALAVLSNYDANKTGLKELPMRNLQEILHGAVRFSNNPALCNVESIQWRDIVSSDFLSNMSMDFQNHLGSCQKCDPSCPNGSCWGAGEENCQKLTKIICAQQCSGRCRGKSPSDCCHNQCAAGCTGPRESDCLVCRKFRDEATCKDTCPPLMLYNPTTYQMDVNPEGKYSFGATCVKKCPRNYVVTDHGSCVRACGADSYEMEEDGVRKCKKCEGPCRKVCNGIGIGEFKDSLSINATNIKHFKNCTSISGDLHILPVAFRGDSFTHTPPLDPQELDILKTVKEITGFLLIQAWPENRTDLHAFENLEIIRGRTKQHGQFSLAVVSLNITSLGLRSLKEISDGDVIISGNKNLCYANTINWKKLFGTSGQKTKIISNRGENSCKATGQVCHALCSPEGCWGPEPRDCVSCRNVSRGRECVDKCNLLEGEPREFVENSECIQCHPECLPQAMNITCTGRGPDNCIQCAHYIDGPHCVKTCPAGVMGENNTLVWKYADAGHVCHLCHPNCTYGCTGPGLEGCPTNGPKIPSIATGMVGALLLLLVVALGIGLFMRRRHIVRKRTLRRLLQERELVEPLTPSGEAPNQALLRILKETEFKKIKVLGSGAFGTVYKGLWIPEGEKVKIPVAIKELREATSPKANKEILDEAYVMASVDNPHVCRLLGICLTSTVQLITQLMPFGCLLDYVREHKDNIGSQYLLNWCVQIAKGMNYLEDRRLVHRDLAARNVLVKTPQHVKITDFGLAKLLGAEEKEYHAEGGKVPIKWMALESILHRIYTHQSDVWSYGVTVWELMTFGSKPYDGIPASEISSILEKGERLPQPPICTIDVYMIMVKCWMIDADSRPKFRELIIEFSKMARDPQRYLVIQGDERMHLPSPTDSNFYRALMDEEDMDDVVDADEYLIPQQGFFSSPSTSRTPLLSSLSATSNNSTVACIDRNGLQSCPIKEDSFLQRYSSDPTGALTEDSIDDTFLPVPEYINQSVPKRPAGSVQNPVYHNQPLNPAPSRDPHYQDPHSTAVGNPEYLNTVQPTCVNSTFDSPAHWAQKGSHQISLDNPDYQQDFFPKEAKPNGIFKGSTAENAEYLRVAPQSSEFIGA
T3 sequence (P00533 25-1210): as above
Sequence of HER4 (Q15303 26-1308): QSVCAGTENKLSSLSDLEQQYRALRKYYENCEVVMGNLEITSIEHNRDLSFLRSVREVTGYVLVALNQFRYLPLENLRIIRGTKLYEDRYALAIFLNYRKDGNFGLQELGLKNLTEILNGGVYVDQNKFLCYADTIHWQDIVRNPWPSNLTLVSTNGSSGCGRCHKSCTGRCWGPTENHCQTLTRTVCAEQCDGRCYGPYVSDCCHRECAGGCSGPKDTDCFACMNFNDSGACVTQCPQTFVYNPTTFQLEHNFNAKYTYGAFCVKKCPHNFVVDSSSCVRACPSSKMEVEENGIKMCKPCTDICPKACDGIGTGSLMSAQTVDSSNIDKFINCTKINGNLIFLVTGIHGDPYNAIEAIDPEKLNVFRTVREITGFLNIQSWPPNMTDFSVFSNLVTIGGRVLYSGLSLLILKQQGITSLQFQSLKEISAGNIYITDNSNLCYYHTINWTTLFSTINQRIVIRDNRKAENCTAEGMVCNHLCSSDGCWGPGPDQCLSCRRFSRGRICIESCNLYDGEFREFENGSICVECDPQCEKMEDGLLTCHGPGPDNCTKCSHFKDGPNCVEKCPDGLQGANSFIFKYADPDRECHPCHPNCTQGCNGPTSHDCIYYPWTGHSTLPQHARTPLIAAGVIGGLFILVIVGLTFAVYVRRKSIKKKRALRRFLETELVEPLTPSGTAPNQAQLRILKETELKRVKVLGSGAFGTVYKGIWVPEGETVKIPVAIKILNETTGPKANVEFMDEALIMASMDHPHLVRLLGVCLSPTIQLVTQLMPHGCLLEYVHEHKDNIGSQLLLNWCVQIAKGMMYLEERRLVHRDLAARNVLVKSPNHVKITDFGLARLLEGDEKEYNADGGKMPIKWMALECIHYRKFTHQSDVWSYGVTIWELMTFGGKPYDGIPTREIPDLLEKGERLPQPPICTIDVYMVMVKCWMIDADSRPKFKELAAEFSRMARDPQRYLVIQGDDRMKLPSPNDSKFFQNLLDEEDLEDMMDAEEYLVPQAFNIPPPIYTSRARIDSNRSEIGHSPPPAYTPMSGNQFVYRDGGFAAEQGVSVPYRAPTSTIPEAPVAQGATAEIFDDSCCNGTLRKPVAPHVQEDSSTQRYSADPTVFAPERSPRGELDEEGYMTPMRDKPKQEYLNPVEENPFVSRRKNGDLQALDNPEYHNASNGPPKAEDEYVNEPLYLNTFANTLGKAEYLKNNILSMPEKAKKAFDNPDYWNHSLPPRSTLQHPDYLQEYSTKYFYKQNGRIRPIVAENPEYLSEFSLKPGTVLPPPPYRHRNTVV
Sequence of FGFR2 (P21802 22-821): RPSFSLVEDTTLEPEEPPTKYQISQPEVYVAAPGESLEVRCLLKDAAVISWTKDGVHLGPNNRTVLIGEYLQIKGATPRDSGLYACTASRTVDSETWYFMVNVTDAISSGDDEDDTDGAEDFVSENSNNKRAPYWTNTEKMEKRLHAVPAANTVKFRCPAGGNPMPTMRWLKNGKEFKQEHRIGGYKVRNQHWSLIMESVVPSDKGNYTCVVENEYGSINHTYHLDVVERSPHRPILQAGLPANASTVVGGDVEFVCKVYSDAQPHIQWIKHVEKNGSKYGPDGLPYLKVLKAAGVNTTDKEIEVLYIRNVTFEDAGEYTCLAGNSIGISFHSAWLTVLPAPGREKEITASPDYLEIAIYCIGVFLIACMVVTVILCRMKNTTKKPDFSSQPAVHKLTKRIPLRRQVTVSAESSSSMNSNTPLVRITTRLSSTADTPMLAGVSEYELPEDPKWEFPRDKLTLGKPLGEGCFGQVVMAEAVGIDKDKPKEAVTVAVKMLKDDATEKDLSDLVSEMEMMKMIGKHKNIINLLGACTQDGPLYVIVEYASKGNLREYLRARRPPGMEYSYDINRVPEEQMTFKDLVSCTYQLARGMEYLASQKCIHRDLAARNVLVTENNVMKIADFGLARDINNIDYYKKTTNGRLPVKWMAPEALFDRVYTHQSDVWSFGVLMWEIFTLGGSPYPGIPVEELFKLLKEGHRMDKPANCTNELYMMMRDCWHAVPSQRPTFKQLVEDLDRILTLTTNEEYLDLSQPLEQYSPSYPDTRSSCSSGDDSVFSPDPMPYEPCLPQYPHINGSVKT

SMILES: COC(=O)C/C(C)=C/C(=O)O[C@@H]1C[C@@H](C)[C@H]2[C@@H](C=C[C@H](CC(C)C)[C@]2(C)C(=O)/C=C\O)[C@@H]1O [Tandyukisin]
- EC50 (MCF-7 cells; Homo sapiens, MCF7, MTT, 24 h, read-out: EC50, MCF-7 cell viability): 3000 ± 1000 nM
- cell lethality percentage (MCF-7 cells; MCF-7, 10 μM): 75.7% ± 2.3%
- BAX WB Gray Value (BAX; 5 µM): 19561.731
- BAX WB Normalized (BAX; 5 µM): 0.4461
- BAX WB Gray Value (BAX; 10 µM): 48768.744
- BAX WB Normalized (BAX; 10 µM): 1.12
- BAX WB Gray Value (BAX; 20 µM): 33049.489
- BAX WB Normalized (BAX; 20 µM): 0.9664
- IC50 (EGFR L858R/T790M): 237 ± 28 nM
- IC50 (EGFR T790M): 32.6 ± 0.6 nM
- IC50 (WT EGFR): 10.6 nM and 10 nM and ~10 nM
- IC50 (FGFR2): > 100000 nM
- IC50 (HER4): 31.1 ± 0.1 nM
- CETSA WB Gray Value (Figure 3F) (EGFR; 5 µM): 29078.924
- CETSA WB Normalized (Figure 3F) (EGFR; 5 µM): 0.7019
- CETSA WB Gray Value (Figure 3F) (EGFR; 10 µM): 31150.702
- CETSA WB Normalized (Figure 3F) (EGFR; 10 µM): 0.8063
- CETSA WB Gray Value (Figure 3F) (EGFR; 20 µM): 42106.53
- CETSA WB Normalized (Figure 3F) (EGFR; 20 µM): 1.166
- accumulation of EGFR in the soluble fraction (CETSA) compared with DMSO control (EGFR; MCF-7, 5, 10, 20 μM, 24 h, heated): markable increase
